This experiment has as its system tebuconazole-resistant Fusarium graminearum (TR). Kind of experiment: microbe, parasite or virus in culture. The class given is cell-based. As to conditions: for EC50: Fusarium graminearum, 72 h; for ATI: ZJS178 as standard reagent, TR strain.

Converted amounts (≈) assume the structure as drawn.

As a reminder, the EC50 is the concentration needed to bring the measured effect to its halfway point.

`CC(C)(C)C(O)(CCc1ccc(Cl)cc1)Cn1cncn1` (racemic) [Tebuconazole (B), (RS)-1-p-chlorophenyl-4,4-dimethyl-3-(1H-1,2,4-triazol-1-ylmethyl)pentan-3-ol, reference compound] had an EC50 of 1.52 µg/mL (≈ 4.95 µM) and an ATI of 2.34.

For `CCOC(=O)/C(C#N)=C(\N)c1ccc(N(C)CC)cc1` [ZJS178 (A), ethyl 2-cyano-3-amino-3-[4-(N-ethyl-N-methylamino)phenyl]acrylate], the response was half-maximal at 0.0356 µg/mL (≈ 0.13 µM) (EC50) and the ATI stood at 100.00.
